Results reported in patent US6218431A, “Substituted biphenyls” (Bayer Corporation, priority 1997, dated 2001).

Legend:
rat liver membrane [1] = settings: Collins et al. 1992; cited from earlier work
rat liver membrane [2] = settings: Collins et al. 1992; cited from earlier work; remark: listed apart in the source
glucagon receptor = target: T1, glucagon receptor (Homo sapiens, UniProt P47871); assay: glucagon receptor binding assay (125I-glucagon, CHO-HGR membranes); settings: 125I-glucagon; 60 min at room temperature; read-out: IC50
T1 construct: expressed in transfected cells; host or cells: Chinese Hamster Ovary cells (CHO-HGR), membranes
T1 sequence (P47871 26-477): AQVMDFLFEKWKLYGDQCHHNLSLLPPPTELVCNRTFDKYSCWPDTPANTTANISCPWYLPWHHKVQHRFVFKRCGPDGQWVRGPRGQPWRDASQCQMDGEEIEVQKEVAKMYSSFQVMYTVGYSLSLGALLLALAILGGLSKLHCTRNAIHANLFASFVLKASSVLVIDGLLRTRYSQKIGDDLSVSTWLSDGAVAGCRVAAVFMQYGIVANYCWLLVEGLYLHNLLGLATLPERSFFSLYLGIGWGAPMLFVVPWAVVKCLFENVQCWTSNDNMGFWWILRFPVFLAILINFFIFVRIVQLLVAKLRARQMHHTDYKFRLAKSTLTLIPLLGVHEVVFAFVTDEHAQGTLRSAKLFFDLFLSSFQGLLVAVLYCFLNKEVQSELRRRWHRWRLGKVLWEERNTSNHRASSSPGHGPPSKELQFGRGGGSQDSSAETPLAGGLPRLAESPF
Summary of the method: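 Membranes from CHO cells expressing glucagon receptor (10 ug protein) in Tris pH 7.4 buffer with EDTA, BSA and bacitracin, incubated with test compound and 125I-glucagon (9 fmol) 60 min at room temperature. Bound radioactivity counted after filtration; nonspecific binding defined with 1 μM native glucagon; 0.5% DMSO.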

CN(C)CCCN(C)c1nc2cc(Cl)c(Cl)cc2nc1/C=C/c1ccccc1 [CP-99,711]
inhibit glucagon binding (rat liver membrane [1]): micromolar concentrations | inhibit glucagon action (rat liver membrane [2]): micromolar concentrations

CCc1c(C(C)C)cc(C(C)C)c(C(C)O)c1-c1ccc(F)cc1O (centres unmarked) [Example 246, 3,5-Diisopropyl-2-(1-hydroxyethyl)-6-ethyl-4'-fluoro-2'-hydroxy-1,1'-biphenyl]
IC50 (glucagon receptor): 0.011 µM

CCCCCc1c(C(C)C)cc(C(C)C)c(C(C)O)c1-c1ccc(F)cc1O (centres unmarked) [Example 247, 3,5-Diisopropyl-2-(1-hydroxyethyl)-6-pentyl-4'-fluoro-2'-hydroxy-1,1'-biphenyl]
IC50 (glucagon receptor): 0.006 µM

CC(C)c1cc(C(C)C)c(CSc2cc(Cl)cc(Cl)c2)c(-c2ccc(F)cc2)c1CO [Example 285]
IC50 (glucagon receptor): 9 µM

Cc1c(F)c(F)c(SCc2c(C(C)C)cc(C(C)C)c(CO)c2-c2ccc(F)cc2)c(F)c1F [Example 286]
IC50 (glucagon receptor): 18 µM

CC(C)c1cc(C(C)C)c(CSc2c(F)c(F)c(Cl)c(F)c2F)c(-c2ccc(F)cc2)c1CO [Example 287]
IC50 (glucagon receptor): 20 µM

CC(C)c1cc(C(C)C)c(CSc2c(F)c(F)cc(F)c2F)c(-c2ccc(F)cc2)c1CO [Example 288]
IC50 (glucagon receptor): 2 µM
